Data set [1] deals with T1, human recombinant ghrelin receptor (GHS-R1a) (Homo sapiens, UniProt Q92847).
T1 construct: host or cells: CHO-K1
Put plainly: hGHS-R1a Ca assay (Fluo-4 calcium assay in CHO-K1 cells). Conditions: CHO-K1 cells expressing human GHS-R1a; agonist dose response up to 30 μM. The format is cell-based. How it is done: (§1) Chinese hamster ovary (CHO-K1) cells expressing human recombinant ghrelin receptor (GHS-R1a) were purchased from Euroscreen (ES-410-C) and propagated in UltraCHO medium containing glutamine and supplemented with 1% heat inactivated foetal calf serum (FCS), 100 U/ml penicillin, 100 mg/l streptomycin and 0.8 g/l geneticin. Cells were sub-cultured twice a week with a 1:10 dilution. For passaging, cells were washed with 1×DPBS without calcium and magnesium, trypsinised for 10 min with 0.05% Trypsin/EDTA and resuspended in cell culture medium.
Cells were diluted to achieve 1×10^6 cells/ml, seeded in 384-well black clear bottom CellBind plates at 25000 cells/well (25 ul) and incubated overnight at 37° C./5% CO2 Cells were expected to be 85-90% confluent on the day of assay (checked under the microscope) to ensure a high quality assay. Media was manually removed and 40 μl of loading solution containing probenecid and Fluo-4 no wash dye (a calcium indicator, Invitrogen F36206) were added to each well. After 30 min at 37° C. followed by another 30 min at RT, cpds were added to the wells. To generate a dose response up to 30 μM, 10 mM compound stocks in 100% (v/v) DMSO were firstly diluted in 50% (v/v) DMSO. Then, serial dilutions aimed at a full logarithmic dose responses (8 point) were performed in assay buffer [1×HBSS, 20 mM Hepes, 0.1% (w/v) BSA] to give 2.5% (v/v) DMSO and 5× final compound concentrations. The final assay DMSO concentration was 0.5% (v/v). After loading the cells with Fluo-4 containing solution, plates were read on a CellLux instrument (Perkin Elmer). A protocol set up to add 10 μl of 5× compound and to read the plate for 60 sec after adding the compound at 17th sec was used. Fluorescence excitation took place at 494 nm and emission at 516 nm. EC50 values of agonists were calculated by fitting the percent stimulation over background [(Max−Min)/Min] using the nonlinear logistic function of the Prism 5 software (GraphPad, USA).

In data set [2] the target is T1, human recombinant ghrelin receptor (GHS-R1a). Put plainly: hGHS-R1a cAMP assay (HTRF cAMP dynamic 2 kit, CHO-hGHS-R1a cells). It counts as cell-based. The note with it: 60 min incubation, dose response up to 30 μM. How it is done:
as §1
The Homogeneous Time-Resolved Fluorescence (HTRF) cAMP dynamic 2 kit (Cisbio International, France) was used as follows. CHO-hGHS-R1a or CHO-rGHS-R1a cells were seeded in a volume of 25 μl culture media at 10,000 cells/well (400,000 cells/ml) in Greiner white 384-well high volume plates and incubated overnight (18-24 h) at 37° C./5% CO2. Then, media was removed and 6 μl assay buffer [HBSS, 10 mM Hepes, 0.2% (w/v) BSA, 1.7 mM IBMX, (pH7.4)] were added to the wells. To generate a dose response up to 30 μM, 10 mM compound stocks in 100% (v/v) DMSO were firstly diluted in 50% (v/v) DMSO followed by a further dilution into assay buffer. Then, 4 μl of 2.5× compound (dose response as 9 point log serial dilution in assay buffer from 30 μM as maximum concentration) were added to each well achieving a final DMSO assay concentration of 0.8% (v/v). 0.1 μM forskolin was added as positive control. After 30 min (rGHS-R1a cell line) or 60 min (hGHS-R1a cell line) incubation at 37° C./5% CO2, 5 μl of cAMP-d2 and 5 μl of anti-cAMP antibody-cryptate, (both made in lysis buffer), were added to the plate followed by 1 h incubation at RT. During this time, cAMP produced by the cells competed with cAMP-d2 for the anti-cAMP antibody-cryptate molecule. Then, the plate was read on the Pherastar instrument (BMG, Germany) at two different emission wavelengths (620 and 650 nm). Increasing levels of endogenous cAMP produced by cells could be followed by a decrease of FRET fluorescent signal and viceversa. Values represented by a change in arbitrary fluorescence ratios (665/620) were converted into cAMP concentrations by using a standard curve, the reagents for which were supplied with the kit. EC50 values of agonists were calculated using the nonlinear logistic function of the Prism 5 software (GraphPad, USA). Emax were expressed as relative values of the ghrelin response, which was defined as 100%.
(In general: cAMP levels reflect the balance of adenylyl cyclase and phosphodiesterase activity.)

The nature of data set [3]: Aqueous solubility of crystalline L-malate salt forms compared to free base amorphous form. The note with it: crystalline L-malate salt compared to the free base amorphous form. It counts as physicochemical.

T1 sequence (Q92847 whole entry): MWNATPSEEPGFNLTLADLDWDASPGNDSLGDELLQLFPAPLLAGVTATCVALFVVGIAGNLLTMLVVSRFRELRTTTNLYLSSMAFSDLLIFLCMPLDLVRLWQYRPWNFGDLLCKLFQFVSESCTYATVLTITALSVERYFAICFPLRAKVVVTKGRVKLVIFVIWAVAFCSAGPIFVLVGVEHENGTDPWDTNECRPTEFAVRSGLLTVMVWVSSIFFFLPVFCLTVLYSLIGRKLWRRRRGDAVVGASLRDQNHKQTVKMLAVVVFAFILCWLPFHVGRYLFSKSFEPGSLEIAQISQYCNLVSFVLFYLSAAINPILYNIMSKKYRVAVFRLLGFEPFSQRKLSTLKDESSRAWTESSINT

On to `COc1ccc(COC[C@@H](NC(=O)C(C)(C)N)C(=O)N2CCCC3(C2)C(=O)N(C)CC3c2ccccc2)cc1` (single isomer, unassigned) [Example 6.0(ii), 2-Amino-N-[(R)-1-(4-methoxy-benzyloxymethyl)-2-((4S,5R)-2-methyl-1-oxo-4-phenyl-2,7-diaza-spiro[4.5]dec-7-yl)-2-oxo-ethyl]-2-methyl-propionamide or 2-Amino-N-[(R)-1-(4-methoxy-benzyloxymethyl)-2-(4R,5S)-2-methyl-1-oxo-4-phenyl-2,7-diaza-spiro[4.5]dec-7-yl)-2-oxo-ethyl]-2-methyl-propionamide], for which the EC50 was determined as 0.0005 µM in data set [1] and 0.109 µM in data set [2].
On the same counts, the results for `CN1CC(c2ccccc2)C2(CCCN(C(=O)[C@@H](COCc3ccc(F)cc3)NC(=O)C(C)(C)N)C2)C1=O` (single isomer, unassigned) [Example 7.0, 2-Amino-N-[(R)-1-(4-fluoro-benzyloxymethyl)-2-(4S,5R)-2-methyl-1-oxo-4-phenyl-2,7-diaza-spiro[4.5]dec-7-yl)-2-oxo-ethyl]-2-methyl-propionamide or 2-Amino-N-[(R)-1-(4-fluoro-benzyloxymethyl)-2-(4R,5S)-2-methyl-1-oxo-4-phenyl-2,7-diaza-spiro[4.5]dec-7-yl)-2-oxo-ethyl]-2-methyl-propionamide] are 0.00017 µM and 0.138 µM.
On the same counts, the results for `CN1CC(c2ccccc2)C2(CCCN(C(=O)[C@@H](COCc3ccccc3)NC(=O)C(C)(C)N)CC2)C1=O` (single isomer, unassigned) [Example 9.0(iv)] are 0.0004 µM and 0.086 µM.
With `CN1C[C@@H](c2ccccc2)[C@@]2(CCCN(C(=O)[C@@H](COCc3ccccc3)NC(=O)C(C)(C)N)C2)C1=O.O=C(O)C[C@H](O)C(=O)O` [2-Amino-N-[(R)-1-benzyloxymethyl-2-((4S,5R)-2-methyl-1-oxo-4-phenyl-2,7-diaza-spiro[4.5]dec-7-yl)-2-oxo-ethyl]-2-methyl-propionamide L-malate salt], the aqueous solubility entry in data set [3] is “increased aqueous solubility”.
Still for that read-out and setting: with `Cc1ccc(C2CN(C)C(=O)C23CCCN(C(=O)[C@@H](COCc2ccccc2)NC(=O)C(C)(C)N)C3)cc1.O=C(O)C[C@H](O)C(=O)O` (stereo partly drawn) [2-amino-N-((2R)-3-(benzyloxy)-1-(2-methyl-1-oxo-4-p-tolyl-2,7-diazaspiro[4.5]decan-7-yl)-1-oxopropan-2-yl)-2-methylpropanamide L-malate salt] the entry was “increased aqueous solubility”; with `CN1C[C@@H](c2ccc(F)cc2)[C@@]2(CCCN(C(=O)[C@@H](COCc3ccccc3)NC(=O)C(C)(C)N)C2)C1=O.O=C(O)C[C@H](O)C(=O)O` [2-amino-N-((2R)-3-(benzyloxy)-1-((4S,5R)-4-(4-fluorophenyl)-2-methyl-1-oxo-2,7-diazaspiro[4.5]decan-7-yl)-1-oxopropan-2-yl)-2-methylpropanamide L-malate salt], “increased aqueous solubility”.
Turning to `CN1C[C@@H](c2ccc(F)cc2)[C@@]2(CCCN(C(=O)[C@@H](COCc3ccccc3)NC(=O)C(C)(C)N)C2)C1=O` [Example 1.2, 2-Amino-N-((2R)-3-(benzyloxy)-1-((4S,5R)-4-(4-fluorophenyl)-2-methyl-1-oxo-2,7-diazaspiro[4.5]decan-7-yl)-1-oxopropan-2-yl)-2-methylpropanamide], the EC50 is 0.0001 µM in data set [1] and 0.055 µM in data set [2].
On the same counts, the results for `CCC(N)(CC)C(=O)N[C@H](COCc1ccccc1)C(=O)N1CCC[C@@]2(C1)C(=O)N(C)C[C@H]2c1ccccc1` [Example 1.71, 2-amino-N-((R)-3-(benzyloxy)-1-((4S,5R)-2-methyl-1-oxo-4-phenyl-2,7-diazaspiro[4.5]decan-7-yl)-1-oxopropan-2-yl)-2-ethylbutanamide] are 0.0054 µM and 1.14 µM.
On the same counts, the results for `Cc1ccc(COC[C@@H](NC(=O)C(C)(C)N)C(=O)N2CCCC3(C2)C(=O)N(C)CC3c2ccc(F)cc2)cc1` (stereo partly drawn) [Example 1.72, 2-amino-N-((2R)-1-(4-(4-fluorophenyl)-2-methyl-1-oxo-2,7-diazaspiro[4.5]decan-7-yl)-3-((4-methylbenzyl)oxy)-1-oxopropan-2-yl)-2-methylpropanamide] are 0.005 µM and 2.56 µM.
On the same counts, the results for `CN1CC(c2ccccc2)C2(CCCN(C(=O)[C@@H](COCc3ccccc3)NC(=O)C(C)(N)C(F)(F)F)C2)C1=O` (stereo partly drawn) [Example 1.73, 2-amino-N-((2R)-3-(benzyloxy)-1-(2-methyl-1-oxo-4-phenyl-2,7-diazaspiro[4.5]decan-7-yl)-1-oxopropan-2-yl)-3,3,3-trifluoro-2-methylpropanamide] are 3.32 µM and at least 30 µM.
Regarding `COc1ccc(C2CN(C)C(=O)C23CCCN(C(=O)[C@@H](COCc2ccccc2)NC(=O)C(C)(C)N)C3)cc1` (stereo partly drawn) [Example 1.74, 2-amino-N-((2R)-3-(benzyloxy)-1-(4-(4-methoxyphenyl)-2-methyl-1-oxo-2,7-diazaspiro[4.5]decan-7-yl)-1-oxopropan-2-yl)-2-methylpropanamide], the EC50 is 0.0054 µM in data set [1] and 5.9 µM in data set [2].
Consider `CC(C)(C)CN1CC(c2ccccc2)C2(CCCN(C(=O)[C@@H](COCc3ccccc3)NC(=O)C(C)(C)N)C2)C1=O` (stereo partly drawn) [Example 1.75, 2-amino-N-((2R)-3-(benzyloxy)-1-(2-neopentyl-1-oxo-4-phenyl-2,7-diazaspiro[4.5]decan-7-yl)-1-oxopropan-2-yl)-2-methylpropanamide], for which the EC50 was found to be 0.0036 µM in data set [1] and 0.302 µM in data set [2].

By EC50 is commonly meant the concentration at which the effect is half-maximal.

The values above are taken from US8546416B2, “3-spirocyclic piperidine derivatives as ghrelin receptor agonists” (Novartis AG, priority 2011, dated 2013).
